Laboratory results published in BindingDB's records for doi:10.1021/jm100394y (Amgen, 2010).
pEC50: −log10 of the molar value.

assay: Inhibition of aurora B in human HeLa cells assessed as increase of >= 4N DNA level after 24 hrs by Hoechst staining

| pEC50 | SMILES |
| --- | --- |
| 7.55 | CNc1nccc(-c2cccnc2Oc2ccc(NC(=O)c3ccccc3Nc3ccc(F)cc3)cc2)n1 [2-(4-Fluorophenylamino)-N-(4-(3-(2-(methylamino)pyrimidin-4-yl)pyridin-2-yloxy)phenyl)benzamide] |
| < 5.92 | CNc1nccc(-c2cccnc2Oc2ccc(NC(=O)c3cccc(Cl)c3)cc2C)n1 [3-Chloro-N-(3-methyl-4-(3-(2-(methylamino)pyrimidin-4-yl)-pyridin-2-yloxy)phenyl)benzamide] |
| 7.62 | CNc1nccc(-c2cccnc2Oc2ccc(Nc3nnc(-c4ccc(F)cc4)c4ccccc34)cc2)n1 [4-(4-Fluorophenyl)-N-(4-(3-(2-(methylamino)pyrimidin-4-yl)-pyridin-2-yloxy)phenyl)phthalazin-1-amine] |
| < 5.92 | CNc1nccc(-c2cccnc2Oc2ccc(NC(=O)c3ccc(Cl)cc3)cc2C)n1 [4-Chloro-N-(3-methyl-4-(3-(2-(methylamino)pyrimidin-4-yl)-pyridin-2-yloxy)phenyl)benzamide] |
| 7.70 | CNc1nccc(-c2cccnc2Oc2ccc(NC(=O)c3cc(F)ccc3Nc3ccccc3)cc2)n1 [5-Fluoro-N-(4-(3-(2-(methylamino)pyrimidin-4-yl)pyridin-2-yloxy)phenyl)-2-(phenylamino)benzamide] |
| 5.84 | CNc1nccc(-c2cccnc2Oc2ccc(NC(=O)c3ccccc3Nc3ccccc3)c(C)c2)n1 [N-(2-Methyl-4-(3-(2-(methylamino)pyrimidin-4-yl)pyridin-2-yloxy)phenyl)-2-(phenylamino)benzamide] |
| 7.05 | CNc1nccc(-c2cccnc2Oc2ccc(NC(=O)c3ccccc3Nc3ccccc3)cc2C)n1 [N-(3-Methyl-4-(3-(2-(methylamino)pyrimidin-4-yl)pyridin-2-yloxy)phenyl)-2-(phenylamino)benzamide] |
| < 5.92 | CNc1nccc(-c2cccnc2Oc2ccc(NC(=O)c3ccccc3Oc3ccccc3)cc2C)n1 [N-(3-Methyl-4-(3-(2-(methylamino)pyrimidin-4-yl)pyridin-2-yloxy)phenyl)-2-phenoxybenzamide] |
| < 5.92 | CNc1nccc(-c2cccnc2Oc2ccc(NC(=O)c3cccc(C(F)(F)F)c3)cc2C)n1 [N-(3-Methyl-4-(3-(2-(methylamino)pyrimidin-4-yl)pyridin-2-yloxy)phenyl)-3-(trifluoromethyl)benzamide] |
| < 5.92 | CNc1nccc(-c2cccnc2Oc2ccc(NC(=O)c3cccc(Oc4ccccc4)c3)cc2C)n1 [N-(3-Methyl-4-(3-(2-(methylamino)pyrimidin-4-yl)pyridin-2-yloxy)phenyl)-3-phenoxybenzamide] |
| 7.82 | CNc1nccc(-c2cccnc2Oc2ccc(NC(=O)c3ccccc3Nc3ccccc3)cc2)n1 [N-(4-(3-(2-(Methylamino)pyrimidin-4-yl)pyridin-2-yloxy)phenyl)-2-(phenylamino)benzamide] |
| 7.82 | CNc1nccc(-c2cccnc2Oc2ccc(Nc3nnc(-c4ccccc4)c4ccccc34)cc2)n1 [N-(4-(3-(2-(Methylamino)pyrimidin-4-yl)pyridin-2-yloxy)phenyl)-4-phenylphthalazin-1-amine] |
